Measurements published in article PMC6718442, “11β-Hydroxysteroid dehydrogenases control access of 7β,27-dihydroxycholesterol to retinoid-related orphan receptor γ” (Journal of Lipid Research, 2019).

Columns and labels:
[1] = biological target: T1, mineralocorticoid receptor (MR) (Homo sapiens, UniProt P80365); assay: Mineralocorticoid receptor reporter gene assay in HEK-293 cells stably expressing 11β-HSD2; format: cell-based; settings: without cortisol, data not shown
T1 sequence (P80365 1-405): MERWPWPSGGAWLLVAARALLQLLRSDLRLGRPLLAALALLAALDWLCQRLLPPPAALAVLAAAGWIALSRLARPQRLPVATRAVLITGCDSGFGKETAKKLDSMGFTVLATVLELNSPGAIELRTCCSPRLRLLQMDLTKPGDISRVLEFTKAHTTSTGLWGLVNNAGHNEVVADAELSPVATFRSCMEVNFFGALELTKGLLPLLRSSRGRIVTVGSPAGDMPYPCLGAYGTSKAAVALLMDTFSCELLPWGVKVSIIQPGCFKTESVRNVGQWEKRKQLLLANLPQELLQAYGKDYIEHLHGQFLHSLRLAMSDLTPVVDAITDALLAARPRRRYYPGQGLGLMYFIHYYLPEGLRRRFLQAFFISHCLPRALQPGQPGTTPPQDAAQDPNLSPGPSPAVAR
T1 sequence (P08235 1-984 partner): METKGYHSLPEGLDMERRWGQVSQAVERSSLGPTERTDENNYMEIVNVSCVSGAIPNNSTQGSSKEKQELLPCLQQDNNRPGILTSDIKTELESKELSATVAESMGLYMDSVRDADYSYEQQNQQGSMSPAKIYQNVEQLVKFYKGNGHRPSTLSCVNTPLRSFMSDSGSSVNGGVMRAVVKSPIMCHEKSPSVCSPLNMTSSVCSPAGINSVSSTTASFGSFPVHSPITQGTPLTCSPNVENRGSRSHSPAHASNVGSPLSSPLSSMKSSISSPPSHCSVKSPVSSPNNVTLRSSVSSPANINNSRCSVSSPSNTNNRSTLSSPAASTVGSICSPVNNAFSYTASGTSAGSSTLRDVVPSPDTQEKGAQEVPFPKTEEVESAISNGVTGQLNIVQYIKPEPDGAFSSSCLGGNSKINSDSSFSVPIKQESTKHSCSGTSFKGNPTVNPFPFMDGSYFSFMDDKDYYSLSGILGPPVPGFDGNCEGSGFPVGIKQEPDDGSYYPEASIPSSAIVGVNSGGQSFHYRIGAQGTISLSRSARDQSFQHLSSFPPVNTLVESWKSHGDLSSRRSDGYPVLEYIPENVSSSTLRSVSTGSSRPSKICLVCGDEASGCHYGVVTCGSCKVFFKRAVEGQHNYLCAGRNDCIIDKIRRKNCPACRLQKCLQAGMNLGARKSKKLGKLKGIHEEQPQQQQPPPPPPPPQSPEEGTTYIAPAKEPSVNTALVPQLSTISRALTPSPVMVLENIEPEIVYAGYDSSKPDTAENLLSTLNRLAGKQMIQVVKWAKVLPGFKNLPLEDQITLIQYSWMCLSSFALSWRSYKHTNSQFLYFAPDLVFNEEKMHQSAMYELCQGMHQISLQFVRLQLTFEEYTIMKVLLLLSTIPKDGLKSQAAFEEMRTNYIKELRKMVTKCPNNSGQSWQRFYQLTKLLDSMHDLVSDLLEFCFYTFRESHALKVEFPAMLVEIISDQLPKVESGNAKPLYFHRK
Procedure: Then, the cells were transiently transfected with the mineralocorticoid receptor (MR) (300 ng/well), a [NT] luciferase reporter (450 ng/well), and a pCMV-lacZ β-galactosidase transfection control (25 ng/well) using the calcium phosphate precipitation method. At 6 h post-transfection, the cells were washed with DMEM and incubated for another 18 h before replacing the medium with cDMEM. The cells were cultured for another 2 h at 37°C. […] The cells were lysed with Tropix lysis solution (Applied Biosystems, Foster City, CA) containing 0.5 mM of dithiothreitol and frozen at -80°C for at least 20 min.

[2] = biological target: T2, mouse 11β-hsd1 (Mus musculus, UniProt P50172); assay: Conversion of 7k27OHC by mouse 11β-hsd1 (data not shown)
T2 construct: expressed in transfected cells; host or cells: HEK-293

[3] = biological target: T3, human 11β-HSD1 (Homo sapiens, UniProt P28845); assay: 11β-HSD1 enzyme kinetics (apparent KM and Vmax) in microsomes; format: biochemical
T3 construct: expressed in transfected cells
Procedure: Microsomes were prepared as described earlier with minor modifications ([38]). Briefly, HEK-293 cells stably expressing human 11β-HSD1 and H6PDH were cultured until they reached confluence. Then, they were washed with ice-cold PBS and resuspended to a final concentration of ∼2 × 10^7 cells/ml in ice-cold buffer A [50 mM Tris (pH 7.5), 1 mM EDTA, 100 mM NaCl]. Typically, 6 ml of this suspension were prepared, corresponding to 1.2 × 10^8 cells. Following homogenization with 20 strokes in a glass potter on ice, the preparation was sonicated and centrifuged (9.000 g, 4°C for 30 min). The supernatant was removed and subjected to ultracentrifugation at 105,000 g, 4°C for 70 min. The obtained pellet was resuspended in buffer B [20 mM Tris (pH 7.5), 1 mM EDTA, 10% glycerol] and the ultracentrifugation step repeated. The microsomal fraction was again resuspended in buffer B and the total protein concentration determined using BCA assay ([39]). The microsomes were immediately frozen on dry ice and stored at −80°C.
Microsomes (1–20 μg) expressing 11β-HSD1 and H6PDH were incubated for 20 min with 1 mM of NADPH, 2 mM of glucose-6-phosphate, 0.1 units of glucose-6-phosphate dehydrogenase (from Saccharomyces cerevisiae), and different concentrations (62.5–2,000 nM) of 7k27OHC, adapted to a total assay volume of 50 μl with TS2 buffer [100 mM NaCl, 1 mM EGTA, 1 mM EDTA, 1 mM MgCl2, 250 mM sucrose, 20 mM Tris/HCl (pH 7.4)]. Oxysterols were extracted by mixing the samples with ice-cold ethyl acetate containing 100 nM deuterium-labeled 7β27OHC as internal standard and 1.5% (v/v) BHT/TPP solution as antioxidant. […] After reconstitution in 50 μl of methanol:ultra-pure water (1:1, v/v), the samples were centrifuged (4°C, 16,000 g for 10 min) and analyzed by UHPLC-MS/MS.
The substrate conversion was kept below 30% in all reactions. Apparent kinetic parameters (KM and Vmax) were determined by nonlinear regression and under the assumption of Michaelis-Menten kinetics. […]

[4] = biological target: T4, 11β-HSD2 (Homo sapiens, UniProt P80365); assay: 11β-HSD2 enzyme kinetics (apparent KM and Vmax) in HEK-293 cell lysate; format: biochemical
T4 construct: expressed in transfected cells
T4 sequence (P80365 1-405): T1 sequence (P80365 1-405)
Procedure: For 11β-HSD2 activity measurements, 0.8 μg of HEK-293 cell lysate stably expressing 11β-HSD2 was incubated with different concentrations (50–800 nM) of 7β27OHC and 500 μM of NAD^+ for 10–30 min. Oxysterols were extracted as described in the 11β-HSD-dependent metabolism of 7-oxygenated 27OHCs in intact cells section.
The substrate conversion was kept below 30% in all reactions. Apparent kinetic parameters (KM and Vmax) were determined by nonlinear regression and under the assumption of Michaelis-Menten kinetics. Data (mean ± SD) were obtained from three independent experiments.

[5] = oxoreduction of substrate by 11β-HSD1, microsomes
[6] = oxidation of substrate by 11β-HSD2, cell lysate

T3 sequence (P28845 whole entry): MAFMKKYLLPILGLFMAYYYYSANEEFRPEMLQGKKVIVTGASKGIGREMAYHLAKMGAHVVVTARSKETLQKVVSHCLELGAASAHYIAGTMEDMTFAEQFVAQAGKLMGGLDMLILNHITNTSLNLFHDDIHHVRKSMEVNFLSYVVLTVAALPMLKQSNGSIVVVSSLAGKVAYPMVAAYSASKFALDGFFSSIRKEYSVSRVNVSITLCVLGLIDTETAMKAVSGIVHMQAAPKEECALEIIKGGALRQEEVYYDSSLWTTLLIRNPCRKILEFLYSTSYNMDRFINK
T2 sequence (P50172 whole entry): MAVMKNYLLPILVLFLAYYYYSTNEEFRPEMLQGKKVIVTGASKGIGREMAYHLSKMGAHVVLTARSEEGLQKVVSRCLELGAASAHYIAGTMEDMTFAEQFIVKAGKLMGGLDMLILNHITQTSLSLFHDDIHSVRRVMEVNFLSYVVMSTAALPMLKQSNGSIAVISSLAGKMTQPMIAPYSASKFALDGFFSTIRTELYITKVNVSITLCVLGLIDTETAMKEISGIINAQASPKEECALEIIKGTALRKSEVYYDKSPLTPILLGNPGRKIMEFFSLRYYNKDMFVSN

CC(CO)CCC[C@@H](C)[C@H]1CC[C@H]2[C@@H]3C(=O)C=C4C[C@@H](O)CC[C@]4(C)[C@H]3CC[C@]12C (stereo partly drawn) [7k27OHC, 7-keto,27-hydroxycholesterol]
Stimulation of MR activity by the substance itself (in words) [1]: neither 7β27OHC nor 7k27OHC was able to stimulate MR activity by itself | Conversion by mouse 11β-hsd1 (in words) [2]: exclusive conversion of 7k27OHC to 7β27OHC without the formation 7α27OHC | KMapp [3, 5]: 39 ± 12 nM | Vmax app [3, 5]: 4.3 ± 0.2 nmol·h^−1·mg total protein^−1 | Affinity of 11β-HSD1, times higher than for other endogenous substrates ([3]; versus cortisone, 11-DHC, 7kC, 7oxoLCA): 6-25 times

CC(CO)CCC[C@@H](C)[C@H]1CC[C@H]2[C@@H]3[C@@H](O)C=C4C[C@@H](O)CC[C@]4(C)[C@H]3CC[C@]12C (stereo partly drawn) [7β27OHC, 7β,27-dihydroxycholesterol]
Stimulation of MR activity by the substance itself (in words) [1]: neither 7β27OHC nor 7k27OHC was able to stimulate MR activity by itself | KMapp [4, 6]: 56 ± 11 nM | Vmax app [4, 6]: 10 ± 0.4 nmol·h^−1·mg total protein^−1 | Substrate affinity of 11β-HSD2, times higher than for cortisol ([4]; versus cortisol KMapp ∼200 nM): ~4 times
